# System: tau tangles/Aβ plaques on AD brain sections
# Test: Assay 1: direct staining of human Alzheimer's disease brain sections (fluorescence)
# Assay type: binding
# Parameters: key to Direct staining of tau tangles/Aβ plaques on AD brain sections at 100 μM / Direct staining of tau tangles on AD brain sections at 100 μM / Direct staining of Aβ plaques on AD brain sections at 100 μM / Direct staining of tau tangles on AD brain sections (footnote a: at 250 μM): − (No); +++ (strong); ++ (good); + (weak)
# Conditions: 100 μM compound; human AD brain sections; fluorescence; cell does not say tangles or plaques
# Experimental: Assay 1 (Fluorescence Based Assay):
# Direct Binding of Compounds of this Invention to Human Alzheimer's Disease Brain Sections and/or Displacement of RefA and Compound B
# Frozen sections with a thickness of […] from the amygdala of donors diagnosed with Braak stage V-VI Alzheimer's Disease (Braak, H.; Braak, E. Acta Neuropathol., 1991, 82, 239-259), were purchased from a commercial provider (Tissue Solutions) and kept at −80° C. until use.
# Direct Staining of Human Alzheimer's Disease Brain Sections
# Brain sections were encircled with pap pen liquid blocker to reduce the volume of solution for the different incubations. Sections were fixed for 15 min at 4° C. with 4% paraformaldehyde and washed three times 5 minutes with PBS at room temperature. […] To reduce the auto-fluorescence of the tissue, the sections were incubated in a solution of 0.1% Sudan Black (Sigma 199664) in 70% ethanol for 15 min at room temperature in the dark, washed four times for 5 minutes with PBS, and mounted using ProLong Gold Antifade reagent (Invitrogen P36930). Sections were then analyzed on the Nikon Eclipse Ti microscope to detect staining and imaged using Nikon DS-Fi2 camera and NIS-Element AR4.13.1 software.
row,Structure (SMILES),Direct staining of tau tangles/Aβ plaques on AD brain sections at 100 μM
1,CN1CCc2c(c3ccc(Nc4ccc(F)c([N+](=O)[O-])c4)nc3n2C)C1=O [Example 211],−
2,CN1CCc2c(c3ccc(Nc4cnn(CCCF)c4)nc3n2C)C1=O [Example 191],−
3,Cn1c2c(c3ccc(Nc4cccc(OCCF)n4)nc31)C(=O)NCC2 [Example 210],−
4,OCCn1c2ccncc2c2ccc(Nc3cccc(OCCF)c3)nc21 [Example 165],−
5,CN1CCc2c(c3ccc(Nc4ccc(F)c([N+](C)(C)C)c4)nc3n2C)C1=O [Example 212],−
6,CN1CCc2c(c3ccc(Nc4ccc(F)c(O)c4)nc3n2C)C1=O [Example 203],−
7,Cn1c2c(c3ccc(Nc4ccnc(OCCF)c4)nc31)C(=O)NCC2 [Example 205],−
8,Cn1ccc2c(c1=O)c1ccc(Nc3ccc(F)c(F)c3)nc1n2C [Example 194],−
9,Cn1c2c(c3ccc(Nc4ccc(C#N)c(OCCF)c4)nc31)C(=O)NCC2 [Example 176],−
10,Cn1c2c(c3ccc(Nc4ccc(N5CCOCC5)cc4)nc31)C(=O)NCC2 [Example 173],−
11,Cn1c2ccncc2c2ccc(N3CC[C@H](F)C3)nc21 [Example 160],−
12,Cn1c2c(c3ccc(Nc4ccc(OCCF)cc4)nc31)C(=O)NCC2 [Example 177],−
13,Cn1c2c(c3ccc(Nc4cc(OCCF)ccn4)nc31)C(=O)NCC2 [Example 208],−
14,Cn1c2c(c3ccc(Nc4ccc(OCCF)cn4)nc31)C(=O)NCC2 [Example 207],−
15,CN1CCc2c(c3ccc(Nc4ccc(OCCF)c(F)c4)nc3n2C)C1=O [Example 198],−
16,CN1CCc2c(c3ccc(Nc4ccc(F)nc4)nc3n2C)C1=O [Example 182],−
17,CN1CCc2c(c3ccc(Nc4ccc(O)c(F)c4)nc3n2C)C1=O [Example 202],−
18,CN1CCc2c(c3ccc(Nc4cccc(OCCF)n4)nc3n2C)C1=O [Example 209],−
19,Cn1c2ccncc2c2ccc(Nc3ccc(NCCF)cn3)nc21 [Example 79],−
20,CN1CCc2c(c3ccc(Nc4cccc(NCCF)c4)nc3n2C)C1=O [Example 84],−
21,Cn1c2c(c3ccc(Nc4ccc5nsnc5c4)nc31)C(=O)N(CCF)CC2 [Example 188],−
22,Cn1c2cc[nH]c(=O)c2c2ccc(Nc3cccc(OC(F)F)c3)nc21 [Example 193],−
23,Cn1c2ccncc2c2ccc(Nc3ncc(C#N)s3)nc21 [Example 61],−
24,CN1CCc2c(c3ccc(Nc4ccc(OCCF)cn4)nc3n2C)C1=O [Example 206],−

# Same assay, conditions: 100 μM compound; plaques
row,Structure (SMILES),Direct staining of Aβ plaques on AD brain sections at 100 μM
1,Cn1c2c(c3ccc(Nc4cnn(CCF)c4)nc31)C(=O)NCC2 [Example 186],+ (plaques)
2,Cn1c2ccncc2c2ccc(Nc3cccc(N4CCC(F)CC4)c3)nc21 [Example 33],+ (tangles) + (plaques)
3,CNc1cc(Nc2ccc3c4cnccc4n(C)c3n2)ccc1F [Example 42],+++ (plaques)
4,Cn1c2ccncc2c2ccc(Nc3cccc(SCCF)c3)nc21 [Example 43],+ (tangles) + (plaques)
5,CN(CCF)c1cccc(Nc2ccc3c4cnccc4n(C)c3n2)c1 [Example 26],+++ (plaques)
6,CN1CCc2c(c3ccc(Nc4cccc(F)n4)nc3n2C)C1=O [Example 185],+ (plaques)
7,Cn1c2ccncc2c2ccc(Nc3cccc(N4CC(F)C4)c3)nc21 [Example 32],+ (tangles) + (plaques)
8,Cn1c2ccncc2c2ccc(Nc3ccc(OCCF)nc3)nc21 [Example 50],+ (tangles) + (plaques)
9,Cc1ccc(Nc2ccc3c4cnccc4n(C)c3n2)cc1OC(F)F [Example 36],+ (plaques)
10,Fc1ccc(Nc2ccc3c(n2)[nH]c2ccncc23)cc1F [Example 27],+ (tangles) + (plaques)
11,Cn1c2ccncc2c2ccc(Nc3ccnc(OCCF)c3)nc21 [Example 58],+++ (plaques)
12,Cn1c2ccncc2c2ccc(Nc3cccc(C(F)F)c3)nc21 [Example 35],++ (tangles) ++ (plaques)
13,Cn1c2c(c3ccc(Nc4cccc(F)n4)nc31)C(=O)NCC2 [Example 184],+ (plaques)
14,Cn1c2ccncc2c2ccc(Nc3cccc(OCCOCCOCCF)n3)nc21 [Example 60],++ (tangles) ++ (plaques)
15,COc1ccc(Nc2ccc3c4cnccc4n(C)c3n2)cc1F [Example 30],+ (tangles) + (plaques)
16,Cn1c2ccncc2c2ccc(N3CCN(c4ccc(F)cc4)CC3)nc21 [Example 25],+ (tangles) + (plaques)
17,Cn1c2ccncc2c2ccc(Nc3ccc(F)nc3)nc21 [Example 22],+ (tangles) + (plaques

# Same assay, conditions: 100 μM compound; tangles
row,Structure (SMILES),Direct staining of tau tangles on AD brain sections at 100 μM
1,Cn1c2ccncc2c2ccc(Nc3cc(CCF)ccn3)nc21 [Example 148],++ (tangles)
2,Cn1c2ccncc2c2ccc(Nc3cccc(N4CCC(F)CC4)c3)nc21 [Example 33],+ (tangles) + (plaques)
3,Cn1c2ccncc2c2ccc(Nc3ccc(F)c(F)c3)cc21 [Example 39],++ (tangles)
4,Cn1c2ccncc2c2ccc(Nc3csc(OCCF)n3)nc21 [Example 69],++ (tangles)
5,Cc1ccc(Nc2ccc3c4cnccc4n(C)c3n2)cc1OCCF [Example 34],+++ (tangles)
6,Cn1c2ccncc2c2ccc(Nc3cccc(SCCF)c3)nc21 [Example 43],+ (tangles) + (plaques)
7,Cn1c2ccncc2c2ccc(Nc3ccc(OCCF)cn3)nc21 [Example 62],+ (tangles)
8,COc1cc(Nc2ccc3c4c(n(C)c3n2)CCNC4=O)ccn1 [Example 181],+ (tangles)
9,Cn1c2c(c3ccc(Nc4ccc(C#N)c(F)c4)nc31)C(=O)NCC2 [Example 179],+ (tangles)
10,Cn1c2ccncc2c2ccc(Nc3cncc(OCCCF)c3)nc21 [Example 97],+++ (tangles)
11,Cn1c2ccncc2c2ccc(Nc3cccc(N4CC(F)C4)c3)nc21 [Example 32],+ (tangles) + (plaques)
12,Cn1c2cccnc2c2ccc(Nc3cccc(OCCF)c3)nc21 [Example 163],++ (tangles)
13,Cn1c2ccncc2c2ccc(Nc3ccc(OCCF)nc3)nc21 [Example 50],+ (tangles) + (plaques)
14,Fc1ccc(Nc2ccc3c(n2)[nH]c2ccncc23)cc1F [Example 27],+ (tangles) + (plaques)
15,Cn1c2ccncc2c2ccc(Nc3cccc(C(F)F)c3)nc21 [Example 35],++ (tangles) ++ (plaques)
16,Cn1c2ccncc2c2ccc(Nc3cncc(F)c3)nc21 [Example 29],+ (tangles)
17,Cn1c2ccncc2c2ccc(Nc3cccc(OCCOCCOCCF)n3)nc21 [Example 60],++ (tangles) ++ (plaques)
18,COc1ccc(Nc2ccc3c4cnccc4n(C)c3n2)cc1F [Example 30],+ (tangles) + (plaques)
19,Cn1c2ccncc2c2ccc(N3CCN(c4ccc(F)cc4)CC3)nc21 [Example 25],+ (tangles) + (plaques)
20,Cn1c2ccncc2c2ccc(Nc3cccc(CCF)n3)nc21 [Example 149],++ (tangles)
21,Cn1c2ccncc2c2ccc(Nc3ccc(F)nc3)nc21 [Example 22],+ (tangles) + (plaques
22,Fc1ccc(Nc2ccc3c(c2)[nH]c2ccncc23)cc1F [Example 37],+ (tangles)
23,CN1CCc2c(c3ccc(Nc4ccc(NCCF)cn4)nc3n2C)C1=O [Example 83],+ (tangles)

# Same assay, conditions: 100 μM in 50% ethanol, 20 min; "(tangles)" beside the symbol = tangles stained
row,Structure (SMILES),Direct staining of tau tangles/Aβ plaques on AD brain sections at 100 μM
1,"COc1ccc(C2C(CCC(=O)NCCCCCC(=O)N(C)C)=C/C(=C/c3[nH]c(C)cc3C)N2B(F)F)cc1 (stereo not drawn) [Prep. Example 18, reference compound]",−
2,Cn1c2c(c3ccc(Nc4ccc(F)c(F)c4)nc31)C(=O)N(CCO)CC2 [Example 215],−
3,"CN(C)C(=O)CCc1ccc(/C=C2/C=CC(c3cccs3)N2)n1B(F)F (stereo not drawn) [Prep. Example 17, reference compound]",−
4,Cn1c2c(c3ccc(Nc4ccc(F)c(F)c4)nc31)C(=O)N(CCCN)CC2 [213 Step F],−

# Same assay, conditions: 100 μM; FIG. 2
row,Structure (SMILES),Direct staining of Aβ plaques on AD brain section
1,"COc1ccc(/C=C/c2ccc3nc(N4CCOCC4)sc3c2)cc1 [Compound B, reference compound]",Direct staining of Aβ plaques

# — patent publication US10662193B2, “Carbazole and carboline compounds for use in the diagnosis, treatment, alleviation or prevention of disorders associated with amyloid or amyloid-like proteins” (AC IMMUNE SA, priority 2014, dated 2020)
